Measured values taken from patent US9394544B2, “Ameliorating oxidative stress in neurodegenerative disease via Nox1 targeting” (University of Central Florida Research Foundation, Inc., priority 2013, dated 2016).

Tested on: Nox1
Assay: Nox1 expression (RT-PCR, immunoblot) in N27 cells exposed to toxins
Format: cell-based, rat
Details: N27 cells
From the text: The NADPH oxidase is a multi-subunit enzyme that consists of the catalytic subunits (Nox isoforms) together with the regulatory subunits including p22phox, p47phox, p40phox, p67phox, Nox organizer 1 (Noxo1), Nox activator 1 (Noxa1), and small GTPase Rac1. In order to test whether dopaminergic (DA) cells are equipped with the NOX components, N27, a well-established rat DA cell line was examined (Prasad et al. 1994). The mRNAs encoding each Nox isoform and regulatory subunits were detected using RT-PCR. Since transcriptional induction of Nox1 and Nox4 has already been reported in several tissues under a variety of stimuli, transcripts were determined in both nontreated and 6-hydroxydopamine (6-OHDA), a DA neurodegenerative compound, treated DA cells. ROS generation as induced by 6-OHDA (100 μM) and subsequent cell death was observed. All Nox isoforms (Nox1, Nox2, Nox4, Duox1 and Duox2) except Nox3 and Nox5 were detected (FIG. 1A). […] Mitochondria, which have long been considered as a major source of ROS, play a key role in Nox1-mediated superoxide generation (Desouki et al. 2005). […] Cytoplasmic regulatory subunits including p47phox, Noxa1, and Noxo1 were constitutively expressed in DA cells as well (FIG. 1A). Noxa1 and Noxo1 are homologues of p67phox and p47phox, respectively. They are involved in Nox1-mediated superoxide generation (Banfi et al. 2003, Geiszt et al. 2003). […] The activation of a small GTPase Rac1 is indispensable for Nox1 and Nox2 activation (Bokoch 2002). GTP-bound active Rac1 was measured in DA cells treated with 6-OHDA for various duration from 1 h to 6 h.
Total RNA was extracted from N27 cells using Trizol reagent (Invitrogen, Carlsbad, Calif.). Reverse transcription was performed for 1 h at 42° C. with 1 μg of total RNA using 20 unit/μl of AMV reverse transcriptase (Roche Applied Science, Indianapolis, Ind.), and oligo-p(dT)15 as a primer. The samples were then heated at 99° C. for 5 min to terminate the reaction. The cDNA obtained from 1 μg total RNA was used as a template for PCR amplification. Oligonucleotide primers were designed based on Genebank entries for rat NOX1 (sense, 5′-[…]-3′ SEQ ID NO. 1; antisense, 5′-[…]-3′ SEQ ID NO. 2), rat NOX2 (sense, 5′-[…]-3′ SEQ ID NO. 3; antisense, 5′-[…]-3′ SEQ ID NO. 4), rat NOX4 (sense, 5′-[…]-3′ SEQ ID NO. 5; antisense, 5′-[…]-3′ SEQ ID NO. 6), rat NOXA1 (sense, 5′-[…]-3′ SEQ ID NO. 7; antisense, 5′-[…]-3′ SEQ ID NO. 8), rat NOXO1 (sense, 5′-[…]-3′ SEQ ID NO. 9; antisense, 5′-[…]-3′ SEQ ID NO. 10), rat p47 (sense, 5′-[…]-3′ SEQ ID NO 11; antisense, 5′-[…]-3′ SEQ ID NO. 12), rat Duox1 (sense, 5′-[…]-3′ SEQ ID NO. 13; antisense, 5′-[…]-3′SEQ ID NO. 14), rat Duox2 (sense, 5′-[…]-3′ SEQ ID NO. 15; antisense, 5′-[…]-3′ SEQ ID NO. 16) and rat GAPDH (sense, 5′-[…]-3′ SEQ ID NO. 17; antisense, 5′-[…]-3′ SEQ ID NO. 18). PCR mixes contained 10 μl of 2×PCR buffer, 1.25 mM of each dNTP, 10 pmol of each forward and reverse primer, and 2.5 units of Taq polymerase in the final volume of 20 μl. Amplification was performed in 35 cycles at 60° C., 30 sec; 72° C., 1 min; 94° C., 30 sec. After the last cycle, all samples were incubated for an additional 10 min at 72° C. for final extension step. PCR fragments were analyzed on 1.2% agarose gel in 0.5×TAE containing ethidium bromide. Amplification of GAPDH, a relatively invariant internal reference RNA, was performed in parallel, and cDNA amounts were normalized against GAPDH mRNA levels. The primer set specifically recognized only the gene of interest as indicated by amplification of a single band of expected size. […]

In the case of `NCCc1cc(O)c(O)cc1O` [6-OHDA, 6-hydroxydopamine], the “Nox1 mRNA (RT-PCR)” value (100 μM, 6 h) was “robustly induced” and the “Nox1 expression (immunoblot)” value (24 h) was “induced Nox1 expression in a dose-dependent manner”.
